Assay results as given in patent EP4458820A1 (Shanghai Institute of Materia Medica, Chinese Academy of …, priority 2021, dated 2023).
pEC50: −log10 of the molar value.

Columns and labels:
THR-β = molecular target: T1, THR-β (Homo sapiens, UniProt P10828); test: in vitro THR β agonist activity at the molecular level (AlphaScreen detection); format: biochemical; conditions: in vitro molecular evaluation system; for Selectivity: THR-β versus THR-α; for Emax: read-out: THR-β Rel % Activity of T3
T1 construct: GST; made in house
T1 sequence (P10828 1-461): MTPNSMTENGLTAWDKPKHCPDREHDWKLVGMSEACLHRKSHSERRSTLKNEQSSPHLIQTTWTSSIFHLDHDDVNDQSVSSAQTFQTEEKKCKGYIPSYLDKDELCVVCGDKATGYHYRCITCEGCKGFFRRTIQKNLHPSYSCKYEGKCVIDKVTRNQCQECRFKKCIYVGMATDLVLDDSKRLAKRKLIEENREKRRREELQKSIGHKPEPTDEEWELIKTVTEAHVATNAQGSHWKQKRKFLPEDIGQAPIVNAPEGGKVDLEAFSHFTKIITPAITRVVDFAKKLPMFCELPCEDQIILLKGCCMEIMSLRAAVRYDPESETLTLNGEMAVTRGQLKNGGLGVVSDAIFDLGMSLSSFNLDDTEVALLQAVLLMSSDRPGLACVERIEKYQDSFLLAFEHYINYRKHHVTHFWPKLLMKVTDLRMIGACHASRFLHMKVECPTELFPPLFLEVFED
Experimental: At the molecular level, the binding ability of the compound to thyroid hormone receptor β (THR β) was measured by AlphaScreen detection. Firstly, recombinant GST-THR β fusion proteins were constructed, followed by compound-receptor binding reactions in 384-well plates.

THR-α = molecular target: T2, THR-α (Homo sapiens, UniProt P10827); test: in vitro agonist activity at the molecular level (AlphaScreen detection), THR-α; format: biochemical; conditions: in vitro molecular evaluation system; for Emax: read-out: THR-α Rel % Activity of T3
T2 sequence (P10827 1-410 isoform P10827-2): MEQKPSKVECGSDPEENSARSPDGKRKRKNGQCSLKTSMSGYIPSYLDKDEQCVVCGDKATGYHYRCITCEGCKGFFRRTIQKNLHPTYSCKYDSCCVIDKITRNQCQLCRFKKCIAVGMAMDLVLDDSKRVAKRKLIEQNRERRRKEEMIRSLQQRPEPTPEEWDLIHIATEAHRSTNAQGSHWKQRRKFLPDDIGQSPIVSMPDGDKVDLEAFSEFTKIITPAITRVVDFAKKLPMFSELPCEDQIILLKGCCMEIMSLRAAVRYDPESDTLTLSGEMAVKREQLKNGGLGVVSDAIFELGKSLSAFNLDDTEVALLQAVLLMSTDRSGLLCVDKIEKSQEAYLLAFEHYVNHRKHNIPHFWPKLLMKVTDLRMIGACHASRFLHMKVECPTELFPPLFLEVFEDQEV

pEC50 (THR-β)	Selectivity (THR-β)	Emax (THR-β) [%]	pEC50 (THR-α)	Emax (THR-α) [%]	Structure (SMILES)
7.14	3.9	84.3	6.55	62.5	Cc1cc(-c2ccco2)nc2ccc(Oc3c(Cl)cc(-n4nc(C#N)c(=O)[nH]c4=O)cc3Cl)cc12 [Compound 15, 2-(3,5-Dichloro-4-((2-(furan-2-yl)-4-methylquinolin-6-yl)oxy)phenyl) -3,5-dioxo-2,3,4,5-tetrahydro-1,2,4-triazine-6-carbonitrile]
6.42		71.8	< 4.30		Cc1cc(-c2cccs2)nc2ccc(Oc3c(Cl)cc(-n4nc(C#N)c(=O)[nH]c4=O)cc3Cl)cc12 [Compound 19, 2-(3,5-Dichloro-4-((2-(thiophen-2-yl) -4-methylquinolin-6-yl)oxy)phenyl) -3,5-dioxo-2,3,4,5-tetrahydro-1,2,4-triazine-6-carbonitrile]
8.08	6.89	83	7.24	62.7	Cc1cc(-c2ccc(F)cc2)nc2ccc(Oc3c(Cl)cc(-n4nc(N)c(=O)[nH]c4=O)cc3Cl)cc12 [Compound 60, 6-amino-2-(3,5-dichloro-4-((2-(4-fluorophenyl)-4-methylquinolin-6-yl)oxy)phenyl)-1,2,4-triazine-3,5(2H,4H)-dione]
7.50	7.85	76.3	6.61	67.5	Nc1nn(-c2cc(Cl)c(Oc3ccc4nccc(Cl)c4c3)c(Cl)c2)c(=O)[nH]c1=O [Compound 99, 6-amino-2-(3,5-dichloro-4((4-chloroquinolin-6-yl)oxy)phenyl)-1,2,4-triazine-3,5(2H,4H)-dione]
6.92	4.2	92.3	6.37	38.4	Cc1cc(C2CCCCC2)nc2ccc(Oc3c(Cl)cc(-n4nc(N)c(=O)[nH]c4=O)cc3Cl)cc12 [Compound 134, 6-amino-2-(3,5-dichloro-4-((2-cyclohexyl-4-methylquinolin-6-yl)oxy)phenyl)-1,2,4-triazine-3,5(2H,4H)-dione]

Structure (SMILES)	pEC50 (THR-β)	Selectivity (THR-β)	Emax (THR-β) [%]	pEC50 (THR-α)	Emax (THR-α) [%]
Cc1cc(-c2ccoc2)nc2ccc(Oc3c(Cl)cc(-n4nc(C#N)c(=O)[nH]c4=O)cc3Cl)cc12 [Compound 17]	6.53	4.2	73.7	5.91	57.6
